Data as given in patent US20190233884A1 (University of Southern California, priority 2016, published 2019).
Structures can show the parent of a compound that is named as a salt. Where two headings read alike, the source gives them in different places.

Experiments:
clinical = conditions: human, in vivo
Description: Neither TPI renal clearance (CLren) nor or tubular secretory Clearance (CLsec) were associated with SNPs in MATE1 (rs2289669 or rs2252281) when tested individually (FIG. 8). […] (FIGS. 8-10). TPI is strongly associated with PFS and OS with regard to renal clearance difference by OCT2 and MATE1 gene-gene interaction.

[1] = cited from earlier work

Clrenal (clinical) [L/h]	CL renal (clinical; Clrenal) [mL/min]	Structure (SMILES)	CLrenal and CLsec ([1]; healthy volunteers, OCT2 rs316019 heterozygote or homozygote along with MATE1 rs225281 heterozygote)	Clrenal ([1]; stratum 3 (MATE1 WT and OCT2 HM) compared with stratum 1 (MATE1 WT and OCT2 WT))
29.6	555	N=C1CCCN1Cc1[nH]c(=O)[nH]c(=O)c1Cl [TPI, tipiracil hydrochloride]	–	–
–	–	CN(C)C(=N)N=C(N)N [metformin, N,N-Dimethylimidodicarbonimidic diamide]	significantly lower	relatively higher
